pIC50: −log10 of the molar value.
Test system: LG0703-F948-PDC complex spheroid viability
Experiment: Anticancer human tumor LG0703-F948-PDC patient-derived lung adenocarcinoma cell line growth inhibition [RAS]
Conditions: for viability, T/C: stronger effect = lower value
Method in brief: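 Agents were tested in combination matrices in half-log decrements from a top concentration at or near clinical Cmax (10 microM if undetermined). Targets were multi-cell spheroids of tumour lines plus HUVEC and MSC stromal cells.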

[1] = curve of first compound, second compound 0.0316 µM
[2] = curve of first compound, second compound 0.1 µM
[3] = curve of first compound, second compound 0.316 µM
[4] = curve of first compound, second compound 1 µM
[5] = second compound 0.0316 µM, first compound 0.0316 µM
[6] = second compound 0.0316 µM, first compound 0.1 µM
[7] = second compound 0.0316 µM, first compound 0.316 µM
[8] = second compound 0.0316 µM, first compound 1 µM
[9] = second compound 0.0316 µM, first compound 3.16 µM
[10] = second compound 0.0316 µM, first compound 10 µM
[11] = second compound 0.1 µM, first compound 0.0316 µM
[12] = second compound 0.1 µM, first compound 0.1 µM
[13] = second compound 0.1 µM, first compound 0.316 µM
[14] = second compound 0.1 µM, first compound 1 µM
[15] = second compound 0.1 µM, first compound 3.16 µM
[16] = second compound 0.1 µM, first compound 10 µM
[17] = second compound 0.316 µM, first compound 0.0316 µM
[18] = second compound 0.316 µM, first compound 0.1 µM
[19] = second compound 0.316 µM, first compound 0.316 µM
[20] = second compound 0.316 µM, first compound 1 µM
[21] = second compound 0.316 µM, first compound 3.16 µM
[22] = second compound 0.316 µM, first compound 10 µM
[23] = second compound 1 µM, first compound 0.0316 µM
[24] = second compound 1 µM, first compound 0.1 µM
[25] = second compound 1 µM, first compound 0.316 µM
[26] = second compound 1 µM, first compound 1 µM
[27] = second compound 1 µM, first compound 3.16 µM
[28] = second compound 1 µM, first compound 10 µM
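Also: spheroids exposed to agents for 7 days.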
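For viability, T/C in this document: 100% = DMSO vehicle wells.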

For `CC1(O)CCCC1n1c(=O)c(C(F)F)cc2cnc(NC3CCN(S(C)(=O)=O)CC3)nc21` (configuration not stated) + C#Cc1c(F)ccc2cc(O)cc(-c3ncc4c(N5CC6CCC(C5)N6)nc(OCC56CCCN5CC(F)C6)nc4c3F)c12, the pIC50 [1] was 5.21, the pIC50 [2] was 5.14 and the pIC50 [3] was 5.30. The pIC50 [4] was 5.24, the pIC50 (curve of first compound, second compound 3.16 µM) was 5.37 and the pIC50 (curve of first compound, second compound 10 µM) was 5.40. It also gave a viability, T/C [5] of 109%, a viability, T/C [6] of 92.2% and a viability, T/C [7] of 97.8%. It also gave a viability, T/C [8] of 87%, a viability, T/C [9] of 77.1% and a viability, T/C [10] of 31.6%. The viability, T/C [11] was 131%, the viability, T/C [12] was 109% and the viability, T/C [13] was 82.4%. The viability, T/C [14] was 76.3%, the viability, T/C [15] was 87.7% and the viability, T/C [16] was 29.5%. For the same molecule, the viability, T/C [17] was 83.9%, the viability, T/C [18] was 72.4% and the viability, T/C [19] was 74.5%. For the same molecule, the viability, T/C [20] was 65.9%, the viability, T/C [21] was 69.4% and the viability, T/C [22] was 23.9%. It also gave a viability, T/C [23] of 78.3%, a viability, T/C [24] of 82.7% and a viability, T/C [25] of 88.3%. The viability, T/C [26] was 67.1%, the viability, T/C [27] was 86.7% and the viability, T/C [28] was 21.3%. The viability, T/C (second compound 3.16 µM, first compound 0.0316 µM) was 71.5%, the viability, T/C (second compound 3.16 µM, first compound 0.1 µM) was 62% and the viability, T/C (second compound 3.16 µM, first compound 0.316 µM) was 69.1%. The viability, T/C (second compound 3.16 µM, first compound 1 µM) was 61.6%, the viability, T/C (second compound 3.16 µM, first compound 3.16 µM) was 63% and the viability, T/C (second compound 3.16 µM, first compound 10 µM) was 13.6%. For the same molecule, the viability, T/C (second compound 10 µM, first compound 0.0316 µM) was 50%, the viability, T/C (second compound 10 µM, first compound 0.1 µM) was 71.3% and the viability, T/C (second compound 10 µM, first compound 0.316 µM) was 55.2%. For the same molecule, the viability, T/C (second compound 10 µM, first compound 1 µM) was 62.9%, the viability, T/C (second compound 10 µM, first compound 3.16 µM) was 65.1% and the viability, T/C (second compound 10 µM, first compound 10 µM) was 4.24%.
For `CC1(C)CCC(Nc2ncc(C(F)(F)F)c(-c3c[nH]c4c(P(C)(C)=O)c(C#N)ccc34)n2)CN1` (configuration not stated), the viability, T/C (compound 0.000949 µM) was 91% [middle of 4 runs], the viability, T/C (compound 0.003 µM) was 76.9% [middle of 4 runs] and the viability, T/C (compound 0.00949 µM) was 68.7% [middle of 4 runs]. For the same molecule, the viability, T/C (compound 0.03 µM) was 67.9% [middle of 4 runs], the viability, T/C (compound 0.0949 µM) was 65.8% [middle of 4 runs] and the viability, T/C (compound 0.3 µM) was 67.9% [middle of 4 runs]. The pIC50 (curve of compound) was < 6.52.
With `CC(Nc1ccc2c(c1)OCCn1cc(N3C(=O)OCC3C(F)F)nc1-2)C(N)=O` (configuration not stated) + C=CC(=O)N1CCN(c2nc(OCC3CCCN3C)nc3c(F)c(-c4nc(N)cc(C)c4C(F)(F)F)c(Cl)cc23)C(C)C1 the pIC50 (curve of first compound, second compound 0.00316 µM) was 5.94, the pIC50 (curve of first compound, second compound 0.01 µM) was 6.05 and the pIC50 [1] was 6.01. It also gave a pIC50 [2] of 6.01, a pIC50 [3] of 6.02 and a pIC50 [4] of 5.92. It also gave a viability, T/C (second compound 0.00316 µM, first compound 0.0316 µM) of 91.8%, a viability, T/C (second compound 0.00316 µM, first compound 0.1 µM) of 84.8% and a viability, T/C (second compound 0.00316 µM, first compound 0.316 µM) of 64.5%. It also gave a viability, T/C (second compound 0.00316 µM, first compound 1 µM) of 53.5%, a viability, T/C (second compound 0.00316 µM, first compound 3.16 µM) of 34.7% and a viability, T/C (second compound 0.00316 µM, first compound 10 µM) of 14.8%. For the same molecule, the viability, T/C (second compound 0.01 µM, first compound 0.0316 µM) was 99.9%, the viability, T/C (second compound 0.01 µM, first compound 0.1 µM) was 83.3% and the viability, T/C (second compound 0.01 µM, first compound 0.316 µM) was 62.2%. For the same molecule, the viability, T/C (second compound 0.01 µM, first compound 1 µM) was 49.5%, the viability, T/C (second compound 0.01 µM, first compound 3.16 µM) was 32.9% and the viability, T/C (second compound 0.01 µM, first compound 10 µM) was 14.2%. For the same molecule, the viability, T/C [5] was 98.9%, the viability, T/C [6] was 86.7% and the viability, T/C [7] was 66.9%. The viability, T/C [8] was 47.4%, the viability, T/C [9] was 34.6% and the viability, T/C [10] was 13.5%. For the same molecule, the viability, T/C [11] was 105%, the viability, T/C [12] was 86.3% and the viability, T/C [13] was 63.9%. It also gave a viability, T/C [14] of 50.9%, a viability, T/C [15] of 35.2% and a viability, T/C [16] of 12.9%. It also gave a viability, T/C [17] of 113%, a viability, T/C [18] of 86.6% and a viability, T/C [19] of 68%. The viability, T/C [20] was 44.3%, the viability, T/C [21] was 34.4% and the viability, T/C [22] was 14.8%. It also gave a viability, T/C [23] of 108%, a viability, T/C [24] of 96.5% and a viability, T/C [25] of 69.2%. It also gave a viability, T/C [26] of 53.5%, a viability, T/C [27] of 36% and a viability, T/C [28] of 11.7%.
In the case of `CC1(O)CCCC1n1c(=O)c(C(F)F)cc2cnc(NC3CCN(S(C)(=O)=O)CC3)nc21` (configuration not stated), the viability, T/C (compound 0.1 µM) was 94.2% [middle of 4 runs], the viability, T/C (compound 0.316 µM) was 86.8% [middle of 4 runs] and the viability, T/C (compound 1 µM) was 96% [middle of 4 runs].
`CC(C)n1nc(-c2ccc3oc(N)nc3c2)c2c(N)ncnc21` was tested, and the viability, T/C (compound 0.000316 µM) was 104% [middle of 4 runs], the viability, T/C (compound 0.00316 µM) was 65.1% [middle of 4 runs] and the viability, T/C (compound 0.01 µM) was 40.8% [middle of 4 runs]. The viability, T/C (compound 0.0316 µM) was 23.2% [middle of 4 runs], the viability, T/C (compound 0.1 µM) was 17% [middle of 4 runs] and the IC50 (curve of compound) was 6.31 nM [middle of 4 runs].
Molecule `CC(Nc1ccc2c(c1)OCCn1cc(N3C(=O)OCC3C(F)F)nc1-2)C(N)=O` (configuration not stated) + CCn1c(-c2cccnc2C(C)OC)c2c3cc(ccc31)N1CCOC(CC(NC(=O)C(C(C)C)N(C)C(=O)C3(F)CCN(C(=O)C#CC(C)(C)N(C)C)CC3)C(=O)N3CCCC(N3)C(=O)OCC(C)(C)C2)C1 has a pIC50 (curve of first compound, second compound 0.000949 µM) of 5.59, a pIC50 (curve of first compound, second compound 0.003 µM) of 5.65 and a pIC50 (curve of first compound, second compound 0.00949 µM) of 5.67. The pIC50 (curve of first compound, second compound 0.03 µM) was 5.92, the pIC50 (curve of first compound, second compound 0.0949 µM) was 6.41 and the pIC50 (curve of first compound, second compound 0.3 µM) was > 7.50. The viability, T/C (second compound 0.000949 µM, first compound 0.0316 µM) was 101%, the viability, T/C (second compound 0.000949 µM, first compound 0.1 µM) was 82.3% and the viability, T/C (second compound 0.000949 µM, first compound 0.316 µM) was 89.8%. For the same molecule, the viability, T/C (second compound 0.000949 µM, first compound 1 µM) was 63.6%, the viability, T/C (second compound 0.000949 µM, first compound 3.16 µM) was 46.5% and the viability, T/C (second compound 0.000949 µM, first compound 10 µM) was 24.1%. It also gave a viability, T/C (second compound 0.003 µM, first compound 0.0316 µM) of 102%, a viability, T/C (second compound 0.003 µM, first compound 0.1 µM) of 86.6% and a viability, T/C (second compound 0.003 µM, first compound 0.316 µM) of 72.8%. The viability, T/C (second compound 0.003 µM, first compound 1 µM) was 61.8%, the viability, T/C (second compound 0.003 µM, first compound 3.16 µM) was 45.4% and the viability, T/C (second compound 0.003 µM, first compound 10 µM) was 32.6%. For the same molecule, the viability, T/C (second compound 0.00949 µM, first compound 0.0316 µM) was 102%, the viability, T/C (second compound 0.00949 µM, first compound 0.1 µM) was 83.2% and the viability, T/C (second compound 0.00949 µM, first compound 0.316 µM) was 77.8%. It also gave a viability, T/C (second compound 0.00949 µM, first compound 1 µM) of 54.6%, a viability, T/C (second compound 0.00949 µM, first compound 3.16 µM) of 52.7% and a viability, T/C (second compound 0.00949 µM, first compound 10 µM) of 25.4%. The viability, T/C (second compound 0.03 µM, first compound 0.0316 µM) was 100%, the viability, T/C (second compound 0.03 µM, first compound 0.1 µM) was 81.7% and the viability, T/C (second compound 0.03 µM, first compound 0.316 µM) was 60.8%. It also gave a viability, T/C (second compound 0.03 µM, first compound 1 µM) of 56.5%, a viability, T/C (second compound 0.03 µM, first compound 3.16 µM) of 41.5% and a viability, T/C (second compound 0.03 µM, first compound 10 µM) of 23.3%. It also gave a viability, T/C (second compound 0.0949 µM, first compound 0.0316 µM) of 74.1%, a viability, T/C (second compound 0.0949 µM, first compound 0.1 µM) of 64.8% and a viability, T/C (second compound 0.0949 µM, first compound 0.316 µM) of 54.3%. It also gave a viability, T/C (second compound 0.0949 µM, first compound 1 µM) of 35.2%, a viability, T/C (second compound 0.0949 µM, first compound 3.16 µM) of 31.7% and a viability, T/C (second compound 0.0949 µM, first compound 10 µM) of 19.9%. The viability, T/C (second compound 0.3 µM, first compound 0.0316 µM) was 41.6%, the viability, T/C (second compound 0.3 µM, first compound 0.1 µM) was 32.1% and the viability, T/C (second compound 0.3 µM, first compound 0.316 µM) was 24.8%. The viability, T/C (second compound 0.3 µM, first compound 1 µM) was 18.8%, the viability, T/C (second compound 0.3 µM, first compound 3.16 µM) was 15.4% and the viability, T/C (second compound 0.3 µM, first compound 10 µM) was 10.1%.
